Assay [1] addresses T1, baculovirus-expressed ALK (Homo sapiens, UniProt Q9UM73).
T1 construct: host or cells: baculovirus expression system
The assay is described as follows: ALK Kinase Assay (ELISA-type, time-resolved fluorescence). The format is biochemical. The following applies: 1 μM ATP (Km level), 30 ng/ml ALK, 37° C., 15 minutes; read-out: ALK Activity (ALK kinase inhibition, IC50 class). An outline of the steps: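 Wells were coated with phospholipase C-γ at 10 μg/mL in Tris-buffered saline. Adding 30 ng/ml enzyme started the reaction, which ran at 37° C for 15 minutes before Eu-N1 PT66 antibody detection. Percent inhibition versus log10 concentration gave IC50 by variable-slope fit.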
On the technique in general: In an ELISA, binding on a coated surface is turned into a signal by an enzyme label.

In assay [2] the target is T2, c-Met (cytoplasmic domain) (Homo sapiens, UniProt P08581).
T2 construct: 10 ng/mL c-Met (cytoplasmic domain, Invitrogen Corporation #PV3143); purchased Invitrogen Corporation PV3143
The assay is described as follows: c-Met Kinase Assay (same methods as for ALK, with modifications). The format is biochemical. As to conditions: 1 μM ATP (Km level), 10 ng/mL c-Met; read-out: cMet Activity (c-Met kinase inhibition, IC50 class). Put shortly:
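IC50 values were fitted by variable-slope sigmoidal regression of percent inhibition against log compound concentration. Phosphorylation was read with Eu-N1 PT66 antibody after a 15 min, 37 °C reaction. The reaction was initiated with 10 ng/mL c-Met cytoplasmic domain on wells coated with 10 μg/mL PLC-γ in TBS.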

The structures appear in SMILES notation.

Usually IC50 stands for the concentration needed to halve the response being measured.

T2 sequence (P08581 956-1390 limits assumed): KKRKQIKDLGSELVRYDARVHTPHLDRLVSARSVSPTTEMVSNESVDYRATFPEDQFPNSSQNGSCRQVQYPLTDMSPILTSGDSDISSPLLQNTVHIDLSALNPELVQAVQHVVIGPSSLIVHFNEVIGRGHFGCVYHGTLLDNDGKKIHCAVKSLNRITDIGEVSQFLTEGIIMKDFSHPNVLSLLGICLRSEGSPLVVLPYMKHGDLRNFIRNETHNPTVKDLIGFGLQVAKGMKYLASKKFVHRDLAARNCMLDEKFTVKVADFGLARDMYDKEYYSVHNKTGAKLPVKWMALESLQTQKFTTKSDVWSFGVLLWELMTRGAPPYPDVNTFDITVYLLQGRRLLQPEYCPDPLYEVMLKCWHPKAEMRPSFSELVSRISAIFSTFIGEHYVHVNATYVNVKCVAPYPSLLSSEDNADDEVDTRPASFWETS
T1 sequence (Q9UM73 19-1620): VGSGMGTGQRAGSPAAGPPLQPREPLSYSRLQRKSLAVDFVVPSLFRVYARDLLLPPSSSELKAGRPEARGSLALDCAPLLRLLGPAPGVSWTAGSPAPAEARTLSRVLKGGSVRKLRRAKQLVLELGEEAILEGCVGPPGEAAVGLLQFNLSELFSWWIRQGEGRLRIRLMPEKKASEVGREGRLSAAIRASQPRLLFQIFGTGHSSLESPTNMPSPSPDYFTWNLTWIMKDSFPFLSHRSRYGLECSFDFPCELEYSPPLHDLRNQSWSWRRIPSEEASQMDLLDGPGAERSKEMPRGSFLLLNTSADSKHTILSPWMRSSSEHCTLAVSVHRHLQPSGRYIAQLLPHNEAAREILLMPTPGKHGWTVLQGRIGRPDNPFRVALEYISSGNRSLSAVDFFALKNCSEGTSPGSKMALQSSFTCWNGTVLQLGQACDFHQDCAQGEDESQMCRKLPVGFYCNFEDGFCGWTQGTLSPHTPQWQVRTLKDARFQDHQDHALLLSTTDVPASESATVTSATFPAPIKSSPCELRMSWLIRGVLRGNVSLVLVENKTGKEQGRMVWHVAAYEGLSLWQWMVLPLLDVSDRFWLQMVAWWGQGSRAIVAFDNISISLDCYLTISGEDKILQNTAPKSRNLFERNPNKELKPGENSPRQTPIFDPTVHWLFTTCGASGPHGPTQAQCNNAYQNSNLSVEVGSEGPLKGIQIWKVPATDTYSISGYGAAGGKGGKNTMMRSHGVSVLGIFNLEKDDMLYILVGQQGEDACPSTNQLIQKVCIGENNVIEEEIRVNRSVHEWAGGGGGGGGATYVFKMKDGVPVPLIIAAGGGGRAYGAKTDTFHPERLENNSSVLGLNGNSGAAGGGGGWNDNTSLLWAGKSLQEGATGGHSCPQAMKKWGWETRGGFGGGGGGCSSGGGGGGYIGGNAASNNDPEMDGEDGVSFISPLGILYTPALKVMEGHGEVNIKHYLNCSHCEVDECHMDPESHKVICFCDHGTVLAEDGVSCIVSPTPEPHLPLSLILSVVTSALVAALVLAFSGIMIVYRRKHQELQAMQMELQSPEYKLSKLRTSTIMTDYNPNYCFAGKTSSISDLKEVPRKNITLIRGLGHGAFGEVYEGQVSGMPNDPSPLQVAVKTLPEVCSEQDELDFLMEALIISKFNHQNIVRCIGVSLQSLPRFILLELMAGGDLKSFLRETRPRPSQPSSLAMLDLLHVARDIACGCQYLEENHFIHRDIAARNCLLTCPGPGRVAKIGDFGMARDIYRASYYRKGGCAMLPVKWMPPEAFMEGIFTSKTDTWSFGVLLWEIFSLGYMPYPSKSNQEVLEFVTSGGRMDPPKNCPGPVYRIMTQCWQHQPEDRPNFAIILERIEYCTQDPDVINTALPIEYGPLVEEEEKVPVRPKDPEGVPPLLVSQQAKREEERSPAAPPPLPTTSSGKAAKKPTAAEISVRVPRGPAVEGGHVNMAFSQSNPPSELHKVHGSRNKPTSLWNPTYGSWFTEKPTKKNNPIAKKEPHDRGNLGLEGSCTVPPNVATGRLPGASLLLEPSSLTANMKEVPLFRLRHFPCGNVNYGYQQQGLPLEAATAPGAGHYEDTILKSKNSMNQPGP

In the case of `COc1cc2c(cc1Nc1ncc(Cl)c(Nc3ccccc3S(=O)(=O)N(C)C)n1)CCN(Cc1ncco1)CC2` [Example 1170, 2-[5-Chloro-2-(8-methoxy-3-oxazol-2-ylmethyl-2,3,4,5-tetrahydro-1H-benzo[d]azepin-7-ylamino)-pyrimidin-4-ylamino]-N,N-dimethyl-benzenesulfonamide], the results for the IC50 in assay [1] and in assay [2] were below 100 nM and 1000 to 10000 nM, respectively.
The matching figures for `COc1cc2c(cc1Nc1ncc(Cl)c(Nc3ccccc3S(=O)(=O)N(C)C)n1)CCN(Cc1nccn1C)CC2` [Example 1171, 2-{5-Chloro-2-[8-methoxy-3-(1-methyl-1H-imidazol-2-ylmethyl)-2,3,4,5-tetrahydro-1H-benzo[d]azepin-7-ylamino]-pyrimidin-4-ylamino}-N,N-dimethyl-benzenesulfonamide]: below 100 nM and 1000 to 10000 nM.
`COc1cc2c(cc1Nc1ncc(Cl)c(Nc3ccc(N(C)C)cc3OC)n1)CCN(Cc1ncco1)CC2` [Example 1172, 5-Chloro-N*4*-(4-dimethylamino-2-methoxy-phenyl)-N*2*-(8-methoxy-3-oxazol-2-ylmethyl-2,3,4,5-tetrahydro-1H-benzo[d]azepin-7-yl)-pyrimidine-2,4-diamine]: the IC50 is below 100 nM in assay [1] and above 10000 nM in assay [2].
For `COc1cc2c(cc1Nc1ncc(Cl)c(Nc3ccc(N(C)C)cc3OC)n1)CCN(Cc1nccn1C)CC2` [Example 1173, 5-Chloro-N*4*-(4-dimethylamino-2-methoxy-phenyl)-N*2*-[8-methoxy-3-(1-methyl-1H-imidazol-2-ylmethyl)-2,3,4,5-tetrahydro-1H-benzo[d]azepin-7-yl]-pyrimidine-2,4-diamine], the 50% inhibitory concentration (IC50) in assay [1] was below 100 nM; in assay [2] it was above 10000 nM.
On the same counts, the results for `COCCOc1ccc(Nc2nc(Nc3cc4c(cc3OC)CCN(Cc3ncco3)CC4)ncc2Cl)c(OC)c1` [Example 1174, 5-Chloro-N*4*-[2-methoxy-4-(2-methoxy-ethoxy)-phenyl]-N*2*-(8-methoxy-3-oxazol-2-ylmethyl-2,3,4,5-tetrahydro-1H-benzo[d]azepin-7-yl)-pyrimidine-2,4-diamine] are below 100 nM and above 10000 nM.
On the same counts, the results for `COCCOc1ccc(Nc2nc(Nc3cc4c(cc3OC)CCN(Cc3nccn3C)CC4)ncc2Cl)c(OC)c1` [Example 1175, 5-Chloro-N*4*-[2-methoxy-4-(2-methoxy-ethoxy)-phenyl]-N*2*-[8-methoxy-3-(1-methyl-1H-imidazol-2-ylmethyl)-2,3,4,5-tetrahydro-1H-benzo[d]azepin-7-yl]-pyrimidine-2,4-diamine] are below 100 nM and above 10000 nM.
As to `CNC(=O)c1ccc(Nc2nc(Nc3cc4c(cc3OC)CCN(CC(=O)N(C)C)CC4)ncc2Cl)c(OC)c1` [Example 1176, 4-[5-Chloro-2-(3-dimethylcarbamoylmethyl-8-methoxy-2,3,4,5-tetrahydro-1H-benzo[d]azepin-7-ylamino)-pyrimidin-4-ylamino]-3-methoxy-N-methyl-benzamide], the values for the IC50 in assay [1] and in assay [2] were below 100 nM and above 10000 nM, respectively.
For the compound `CNC(=O)c1ccc(Nc2nc(Nc3cc4c(cc3OC)CCN(C(COC)COC)CC4)ncc2Cl)c(OC)c1` [Example 1177, 4-{5-Chloro-2-[8-methoxy-3-(2-methoxy-1-methoxymethyl-ethyl)-2,3,4,5-tetrahydro-1H-benzo[d]azepin-7-ylamino]-pyrimidin-4-ylamino}-3-methoxy-N-methyl-benzamide], the IC50 is below 100 nM in assay [1] and above 10000 nM in assay [2].
As to `COc1cc2c(cc1Nc1ncc(Cl)c(Nc3ccccc3S(=O)(=O)N3CCCC3)n1)CCN(CCS(C)(=O)=O)CC2` [Example 1178, 5-Chloro-N*2*-[3-(2-methanesulfonyl-ethyl)-8-methoxy-2,3,4,5-tetrahydro-1H-benzo[d]azepin-7-yl]-N*4*-[2-(pyrrolidine-1-sulfonyl)-phenyl]-pyrimidine-2,4-diamine], the values for the IC50 in assay [1] and in assay [2] were below 100 nM and 100 to 1000 nM, respectively.
The matching figures for `COc1cc2c(cc1Nc1ncc(Cl)c(N[C@H]3[C@@H](C(N)=O)[C@@H]4C=C[C@H]3C4)n1)CCN(Cc1ncco1)CC2` [Example 1179, (1S,2S,3R,4R)-3-[5-Chloro-2-(8-methoxy-3-oxazol-2-ylmethyl-2,3,4,5-tetrahydro-1H-benzo[d]azepin-7-ylamino)-pyrimidin-4-ylamino]-bicyclo[2.2.1]hept-5-ene-2-carboxylic acid amide]: below 100 nM and above 10000 nM.
With `COc1cc2c(cc1Nc1ncc(Cl)c(Nc3ccc(N4CCOCC4)cc3OC)n1)CCN(Cc1ncco1)CC2` [Example 1180, 5-Chloro-N*4*-(2-methoxy-4-morpholin-4-yl-phenyl)-N*2*-(8-methoxy-3-oxazol-2-ylmethyl-2,3,4,5-tetrahydro-1H-benzo[d]azepin-7-yl)-pyrimidine-2,4-diamine], the IC50 in assay [1] is below 100 nM; in assay [2] it was above 10000 nM.
As for `COc1cc2c(cc1Nc1ncc(Cl)c(Nc3ccccc3S(=O)(=O)N3CCCC3)n1)CCN(CC(=O)N(C)C)CC2` [Example 1181, 2-(7-{5-Chloro-4-[2-(pyrrolidine-1-sulfonyl)-phenylamino]-pyrimidin-2-ylamino}-8-methoxy-1,2,4,5-tetrahydro-benzo[d]azepin-3-yl)-N,N-dimethyl-acetamide], the IC50 in assay [1] was below 100 nM; in assay [2], 1000 to 10000 nM.
For the compound `CNC(=O)c1ccc(Nc2nc(Nc3cc4c(cc3OC)CCN(Cc3ncco3)CC4)ncc2Cl)c(OC)c1` [Example 1182, 4-[5-Chloro-2-(8-methoxy-3-oxazol-2-ylmethyl-2,3,4,5-tetrahydro-1H-benzo[d]azepin-7-ylamino)-pyrimidin-4-ylamino]-3-methoxy-N-methyl-benzamide], the IC50 in assay [1] was below 100 nM; in assay [2], above 10000 nM.
With `COc1cc2c(cc1Nc1ncc(Cl)c(Nc3ccccc3S(=O)(=O)N(C)C)n1)CCN(CCCN1CCOCC1)C(=O)C2` [Example 1183, 2-{5-Chloro-2-[8-methoxy-3-(3-morpholin-4-yl-propyl)-2-oxo-2,3,4,5-tetrahydro-1H-benzo[d]azepin-7-ylamino]-pyrimidin-4-ylamino}-N,N-dimethyl-benzenesulfonamide], the half-maximal inhibitory concentration (IC50) in assay [1] is below 100 nM; in assay [2] it was above 10000 nM.
Regarding `COCCN(C)S(=O)(=O)c1ccccc1Nc1nc(Nc2cc3c(cc2OC)CCN(CC(=O)N(C)C)CC3)ncc1Cl` [Example 1184, 2-[7-(5-Chloro-4-{2-[(2-methoxy-ethyl)-methyl-sulfamoyl]-phenylamino}-pyrimidin-2-ylamino)-8-methoxy-1,2,4,5-tetrahydro-benzo[d]azepin-3-yl]-N,N-dimethyl-acetamide], the IC50 in assay [1] is below 100 nM; in assay [2], above 10000 nM.
The matching figures for `CNC(=O)c1cc(N(C)C)ccc1Nc1nc(Nc2cc3c(cc2OC)CCN(CC(=O)N(C)C)CC3)ncc1Cl` [Example 1185, 2-[5-Chloro-2-(3-dimethylcarbamoylmethyl-8-methoxy-2,3,4,5-tetrahydro-1H-benzo[d]azepin-7-ylamino)-pyrimidin-4-ylamino]-5-dimethylamino-N-methyl-benzamide]: below 100 nM and above 10000 nM.
On the same counts, the results for `COc1cc2c(cc1Nc1ncc(Cl)c(Nc3ccc[nH]c3=O)n1)CCN(CC(=O)N(C)C)CC2` [Example 1186, 2-{7-[5-Chloro-4-(2-oxo-1,2-dihydro-pyridin-3-ylamino)-pyrimidin-2-ylamino]-8-methoxy-1,2,4,5-tetrahydro-benzo[d]azepin-3-yl}-N,N-dimethyl-acetamide] are below 100 nM and above 10000 nM.
The matching figures for `COc1cc2c(cc1Nc1ncc(Cl)c(Nc3ccc(N(C)C)cc3S(=O)(=O)C(C)C)n1)CCN(CC(=O)N(C)C)CC2` [Example 1187, 2-(7-{5-Chloro-4-[4-dimethylamino-2-(propane-2-sulfonyl)-phenylamino]-pyrimidin-2-ylamino}-8-methoxy-1,2,4,5-tetrahydro-benzo[d]azepin-3-yl)-N,N-dimethyl-acetamide]: below 100 nM and above 10000 nM.
As for `COc1cc2c(cc1Nc1ncc(Cl)c(Nc3ccccc3S(=O)(=O)N3CCC(O)C3)n1)CCN(CC(=O)N(C)C)CC2` (stereo not drawn) [Example 1188, 2-(7-{5-Chloro-4-[2-(3-hydroxy-pyrrolidine-1-sulfonyl)-phenylamino]-pyrimidin-2-ylamino}-8-methoxy-1,2,4,5-tetrahydro-benzo[d]azepin-3-yl)-N,N-dimethyl-acetamide], the figures for the IC50 in assay [1] and in assay [2] were below 100 nM and 1000 to 10000 nM, respectively.
For `COCCOc1ccc(Nc2nc(Nc3cc4c(cc3OC)CCN(CC(=O)N(C)C)CC4)ncc2Cl)c(S(=O)(=O)C(C)C)c1` [Example 1189, 2-(7-{5-Chloro-4-[4-(2-methoxy-ethoxy)-2-(propane-2-sulfonyl)-phenylamino]-pyrimidin-2-ylamino}-8-methoxy-1,2,4,5-tetrahydro-benzo[d]azepin-3-yl)-N,N-dimethyl-acetamide], the IC50 in assay [1] is below 100 nM; in assay [2], above 10000 nM.
On the same counts, the results for `COc1cc2c(cc1Nc1ncc(Cl)c(Nc3cccnc3OC)n1)CCN(CC(=O)N(C)C)CC2` [Example 1190, 2-{7-[5-Chloro-4-(2-methoxy-pyridin-3-ylamino)-pyrimidin-2-ylamino]-8-methoxy-1,2,4,5-tetrahydro-benzo[d]azepin-3-yl}-N,N-dimethyl-acetamide] are below 100 nM and above 10000 nM.
